Where “and” joins values, the source holds several entries; their conditions need not be identical. Equal values may be shown once.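 All cell lines were grown in 96-well plates and treated with compound for 48 hours. GI50: concentration for 50% inhibition of growth. TGI denotes the concentration required for complete inhibition of growth.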 Calls of active or inactive are those of the source. No stated cut-off is given here; in the data, active means GI50 below about 0.43 µM; inactive means the rest.
What was measured:
Assay in all cases: NCI anticancer screen, dose series, 48 h
HT29 colon = system: HT29 colon
ACHN renal = system: ACHN renal
CCRF-CEM leukemia = system: CCRF-CEM leukemia
SNB-19 CNS = system: SNB-19 CNS
M14 melanoma = system: M14 melanoma
SK-MEL-28 melanoma = system: SK-MEL-28 melanoma
KM20L2 colon = system: KM20L2 colon
DMS 273 small cell lung = system: DMS 273 small cell lung
A549 NSCLC = system: A549 NSCLC
SNB-75 CNS = system: SNB-75 CNS
SF-295 CNS = system: SF-295 CNS
HOP-18 NSCLC = system: HOP-18 NSCLC
SN12C renal = system: SN12C renal
SR leukemia = system: SR leukemia
UACC-257 melanoma = system: UACC-257 melanoma
K-562 leukemia = system: K-562 leukemia
OVCAR-3 ovarian = system: OVCAR-3 ovarian
SF-268 CNS = system: SF-268 CNS
HCC-2998 colon = system: HCC-2998 colon
HCT-116 colon = system: HCT-116 colon
DMS 114 small cell lung = system: DMS 114 small cell lung
RXF 393 renal = system: RXF 393 renal
SW-620 colon = system: SW-620 colon
TK-10 renal = system: TK-10 renal
SK-MEL-5 melanoma = system: SK-MEL-5 melanoma
NCI-H23 lung = system: NCI-H23 lung
OVCAR-8 ovarian = system: OVCAR-8 ovarian
SNB-78 CNS = system: SNB-78 CNS
HL-60(TB) leukemia = system: HL-60(TB) leukemia
CAKI-1 renal = system: CAKI-1 renal
NCI-H460 lung = system: NCI-H460 lung
MALME-3M melanoma = system: MALME-3M melanoma
COLO 205 colon = system: COLO 205 colon
SF-539 CNS = system: SF-539 CNS
HOP-62 NSCLC = system: HOP-62 NSCLC
NCI-H522 lung = system: NCI-H522 lung
MOLT-4 leukemia = system: MOLT-4 leukemia
A498 renal = system: A498 renal
LOX IMVI melanoma = system: LOX IMVI melanoma
OVCAR-4 ovarian = system: OVCAR-4 ovarian
U251 CNS = system: U251 CNS
OVCAR-5 ovarian = system: OVCAR-5 ovarian
EKVX NSCLC = system: EKVX NSCLC
786-0 renal = system: 786-0 renal
HCT-15 colon = system: HCT-15 colon
UO-31 renal = system: UO-31 renal
XF 498 CNS = system: XF 498 CNS
UACC-62 melanoma = system: UACC-62 melanoma
M19-MEL melanoma = system: M19-MEL melanoma
NCI-H226 lung = system: NCI-H226 lung
IGROV1 ovarian = system: IGROV1 ovarian
SK-OV-3 ovarian = system: SK-OV-3 ovarian
DLD-1 colon = system: DLD-1 colon
SK-MEL-2 melanoma = system: SK-MEL-2 melanoma
RPMI-8226 leukemia = system: RPMI-8226 leukemia
HOP-92 NSCLC = system: HOP-92 NSCLC
KM12 colon = system: KM12 colon
LXFL 529 NSCLC = system: LXFL 529 NSCLC

In the case of `N/C(=N\N=C/c1c2ccccc2c(Cl)c2ccccc12)NO`, the GI50 (HT29 colon) is reported as 2.84 µM, the TGI (HT29 colon) is reported as 15.6 µM and 8.47 µM and the GI50 (ACHN renal) is reported as 3.84 µM. The TGI (ACHN renal) was 15.8 µM and 13.8 µM, the GI50 (CCRF-CEM leukemia) was 1.37 µM and the TGI (CCRF-CEM leukemia) was 13.7 µM. The GI50 (SNB-19 CNS) was 7.87 µM, the TGI (SNB-19 CNS) was 24.1 µM and 21.3 µM and the GI50 (M14 melanoma) was 2.65 µM. The TGI (M14 melanoma) was 25.1 µM and 9.47 µM, the TGI (SK-MEL-28 melanoma) was 27.6 µM and 27.5 µM and the TGI (KM20L2 colon) was 4.81 µM. The TGI (DMS 273 small cell lung) was 3.89 µM, the GI50 (A549 NSCLC) was 2.25 µM and the TGI (A549 NSCLC) was 11 µM and 5.57 µM. For the same molecule, the TGI (SNB-75 CNS) was 25.8 µM and 32 µM, the GI50 (SF-295 CNS) was 13 µM and the TGI (SF-295 CNS) was 10.4 µM and 26.1 µM. For the same molecule, the TGI (HOP-18 NSCLC) was 10.7 µM and 13.9 µM, the GI50 (SN12C renal) was 2.21 µM and the TGI (SN12C renal) was 19.4 µM and 5.58 µM. The outcome (SR leukemia) was “inactive”, the GI50 (UACC-257 melanoma) was 4.25 µM and the TGI (UACC-257 melanoma) was 11.8 µM and 14.6 µM. The GI50 (K-562 leukemia) was 3.17 µM, the TGI (OVCAR-3 ovarian) was 14 µM and the GI50 (SF-268 CNS) was 10.2 µM. For the same molecule, the TGI (SF-268 CNS) was 26 µM and 27.4 µM, the GI50 (HCC-2998 colon) was 1.85 µM and the TGI (HCC-2998 colon) was 13.7 µM and 3.97 µM. For the same molecule, the GI50 (HCT-116 colon) was 1.76 µM, the TGI (HCT-116 colon) was 13.8 µM and 3.36 µM and the GI50 (DMS 114 small cell lung) was 2.79 µM. For the same molecule, the TGI (DMS 114 small cell lung) was 12.8 µM and 10.2 µM, the GI50 (RXF 393 renal) was 4.61 µM and the TGI (RXF 393 renal) was 3.5 µM and 17.9 µM. For the same molecule, the GI50 (SW-620 colon) was 1.86 µM, the TGI (SW-620 colon) was 18 µM and 3.68 µM and the TGI (TK-10 renal) was 24.3 µM. For the same molecule, the GI50 (SK-MEL-5 melanoma) was 2.39 µM, the TGI (SK-MEL-5 melanoma) was 16.6 µM and 6.5 µM and the GI50 (NCI-H23 lung) was 6.51 µM. The TGI (NCI-H23 lung) was 17.3 µM and 19.8 µM, the GI50 (OVCAR-8 ovarian) was 1.99 µM and the TGI (OVCAR-8 ovarian) was 18.9 µM and 4.92 µM. The TGI (SNB-78 CNS) was 25.3 µM and 30.5 µM, the TGI (HL-60(TB) leukemia) was 7.31 µM and the TGI (CAKI-1 renal) was 19.5 µM and 18.5 µM. The GI50 (NCI-H460 lung) was 2.81 µM, the TGI (NCI-H460 lung) was 11 µM and 9.94 µM and the TGI (MALME-3M melanoma) was 19.4 µM. The GI50 (COLO 205 colon) was 3.22 µM, the TGI (COLO 205 colon) was 14.1 µM and 14.7 µM and the GI50 (SF-539 CNS) was 8.44 µM. The TGI (SF-539 CNS) was 21.3 µM and 21.8 µM, the GI50 (HOP-62 NSCLC) was 5.71 µM and the TGI (HOP-62 NSCLC) was 27.8 µM and 22.9 µM. For the same molecule, the GI50 (NCI-H522 lung) was 1.8 µM, the TGI (NCI-H522 lung) was 14.2 µM and 3.98 µM and the TGI (MOLT-4 leukemia) was 37.2 µM. For the same molecule, the outcome (MOLT-4 leukemia) was “inactive”, the TGI (A498 renal) was 29 µM and the TGI (LOX IMVI melanoma) was 12.2 µM. For the same molecule, the GI50 (OVCAR-4 ovarian) was 2.62 µM, the TGI (OVCAR-4 ovarian) was 20.4 µM and 15 µM and the TGI (U251 CNS) was 20 µM and 20.6 µM. The GI50 (OVCAR-5 ovarian) was 2.54 µM, the TGI (OVCAR-5 ovarian) was 10.2 µM and 8.81 µM and the TGI (EKVX NSCLC) was 15.5 µM and 13.5 µM. The GI50 (786-0 renal) was 5.63 µM, the TGI (786-0 renal) was 26.1 µM and 19.6 µM and the GI50 (HCT-15 colon) was 2.57 µM. The TGI (HCT-15 colon) was 19.4 µM and 6.72 µM, the GI50 (UO-31 renal) was 2.36 µM and the TGI (UO-31 renal) was 22.5 µM and 7.44 µM. The GI50 (XF 498 CNS) was 3.26 µM, the TGI (XF 498 CNS) was 30.5 µM and 17.1 µM and the GI50 (UACC-62 melanoma) was 1.63 µM. The TGI (UACC-62 melanoma) was 4.39 µM and 3.3 µM, the GI50 (M19-MEL melanoma) was 5.4 µM and the TGI (M19-MEL melanoma) was 19.6 µM and 18.6 µM. The TGI (NCI-H226 lung) was 6.86 µM, the TGI (IGROV1 ovarian) was 15.5 µM and 18.5 µM and the TGI (SK-OV-3 ovarian) was 10.5 µM. The TGI (DLD-1 colon) was 20.1 µM and 19.1 µM, the GI50 (SK-MEL-2 melanoma) was 3.61 µM and the TGI (SK-MEL-2 melanoma) was 23.3 µM and 16.9 µM. The TGI (RPMI-8226 leukemia) was 26.6 µM, the outcome (RPMI-8226 leukemia) was “inactive” and the GI50 (HOP-92 NSCLC) was 10.8 µM. For the same molecule, the TGI (HOP-92 NSCLC) was 12.3 µM and 28.7 µM, the GI50 (KM12 colon) was 4.01 µM and the TGI (KM12 colon) was 21.7 µM and 16 µM.

In the case of `O=C(c1ccccc1)c1ccc2cccc(OC3OC(CO)C(O)C(O)C3O)c2n1` (stereo unspecified), the TGI (HT29 colon) is reported as over 100 µM, the TGI (ACHN renal) is reported as over 100 µM and the TGI (SNB-19 CNS) is reported as over 100 µM. It also gave a TGI (M14 melanoma) of over 100 µM, a TGI (SK-MEL-28 melanoma) of over 100 µM and a TGI (KM20L2 colon) of over 100 µM. It also gave a TGI (DMS 273 small cell lung) of over 100 µM, a TGI (A549 NSCLC) of over 100 µM and a TGI (SNB-75 CNS) of over 100 µM. For the same molecule, the TGI (SF-295 CNS) was over 100 µM, the TGI (HOP-18 NSCLC) was over 100 µM and the TGI (SN12C renal) was over 100 µM. For the same molecule, the TGI (SR leukemia) was over 100 µM, the TGI (UACC-257 melanoma) was over 100 µM and the TGI (K-562 leukemia) was over 100 µM. It also gave a TGI (OVCAR-3 ovarian) of over 100 µM, a TGI (SF-268 CNS) of over 100 µM and a TGI (HCC-2998 colon) of over 100 µM. It also gave a TGI (HCT-116 colon) of over 100 µM, a TGI (DMS 114 small cell lung) of over 100 µM and a TGI (RXF 393 renal) of over 100 µM. The TGI (SW-620 colon) was over 100 µM, the TGI (TK-10 renal) was over 100 µM and the TGI (SK-MEL-5 melanoma) was over 100 µM. For the same molecule, the TGI (NCI-H23 lung) was over 100 µM, the TGI (OVCAR-8 ovarian) was over 100 µM and the TGI (SNB-78 CNS) was over 100 µM. For the same molecule, the TGI (CAKI-1 renal) was over 100 µM, the TGI (NCI-H460 lung) was over 100 µM and the TGI (MALME-3M melanoma) was over 100 µM. It also gave a TGI (COLO 205 colon) of over 100 µM, a TGI (SF-539 CNS) of over 100 µM and a TGI (HOP-62 NSCLC) of over 100 µM. It also gave a TGI (NCI-H522 lung) of over 100 µM, a TGI (MOLT-4 leukemia) of over 100 µM and a TGI (A498 renal) of 82 µM. The TGI (LOX IMVI melanoma) was over 100 µM, the TGI (OVCAR-4 ovarian) was over 100 µM and the TGI (U251 CNS) was over 100 µM. It also gave a TGI (OVCAR-5 ovarian) of over 100 µM, a TGI (EKVX NSCLC) of over 100 µM and a TGI (786-0 renal) of over 100 µM. The TGI (HCT-15 colon) was over 100 µM, the TGI (UO-31 renal) was over 100 µM and the TGI (XF 498 CNS) was over 100 µM. It also gave a TGI (UACC-62 melanoma) of over 100 µM, a TGI (LXFL 529 NSCLC) of over 100 µM and a TGI (NCI-H226 lung) of over 100 µM. The TGI (IGROV1 ovarian) was over 100 µM, the TGI (DLD-1 colon) was over 100 µM and the TGI (SK-MEL-2 melanoma) was over 100 µM. It also gave a TGI (RPMI-8226 leukemia) of over 100 µM and a TGI (KM12 colon) of over 100 µM.
